Article PMC7613515, “Reading and erasing of the phosphonium analogue of trimethyllysine by epigenetic proteins” (Communications Chemistry, 2022)

Key:
[1] = cited from earlier work
Excerpt: Some JmjC KDMs can also catalyse N-methyl arginine demethylation and with appropriately sized N^ε-substitutions some can catalyse forma ...

BPTFPHD (L2583–N2751) = biological target: T1, BPTFPHD (L2583–N2751) (Homo sapiens, UniProt Q12830); assay: ITC, association of histone H3 peptides with BPTFPHD; type: binding
T1 construct: BPTFPHD (L2583–N2751); made in house; host or cells: E. coli
Procedure: ITC studies followed a reported procedure[26]. The buffer used corresponded to that used in the final protein purification step. Briefly, TAF3PHD and KDM4ATTD: [Tris (50 mM) in water (pH 7.5)]; KDM5APHD3 and BTPFPHD: [Tris (50 mM), NaCl (20 mM) in water (pH 7.5)]; [Tris (25 mM), NaCl (50 mM), 1,4-dithiothreitol (1.0 mM) in water (pH 7.5)]. Experiments were conducted using ITC200 automated (GE Healthcare Life Sciences, USA) instrument at 25 °C. Histone peptide titrations were performed with the same reader batches. Solutions of the reader in buffer (25–40 µM) and of the histone H3 peptide (350–600 µM) in buffer were prepared. The prepared solutions were plated into a 96-well plate and inserted into the instrument for analysis. Experiments were performed according to manufacturer’s default settings: Plate pre-rinse syringe clean. A total of 19 injections were performed; each experiment was repeated 3–5 times. Heats of dilution for histone peptides determined in control experiments were subtracted from the titration binding data.

[2] = biological target: T2, KDM4ATTD (JMJD2A, Q897-P1011) (Homo sapiens, UniProt O75164); assay: ITC, association of histone H3 peptides with KDM4ATTD; type: binding
T2 construct: KDM4ATTD (JMJD2A, Q897-P1011); made in house; host or cells: E. coli
T2 sequence (O75164 897-1011): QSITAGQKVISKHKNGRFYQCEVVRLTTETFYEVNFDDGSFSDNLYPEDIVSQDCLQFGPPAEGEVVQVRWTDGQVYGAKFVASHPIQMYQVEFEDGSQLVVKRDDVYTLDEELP
Excerpt: We investigated the thermodynamics of association of the H3KP4me3 peptide with five representative human reader domains containing either a PHD zinc finger or TTD, i.e. KDM5APHD3 (JARID1A-PHD3, residues M1489–V1641)[10], TAF3PHD (R857–K924)[22], BPTFPHD (L2583–N2751)[23], SGF29TTD (R115–K293)[24] and KDM4ATTD (JMJD2A, Q897-P1011)[25], selected on the basis of their preference for binding Ν^ε-trimethyllysine over other (non)methylation marks (Kme0 < Kme1 < Kme2 < Kme3), and their domain and aromatic cage diversity. The recombinant readers were produced in E. coli following reported procedures. Isothermal titration calorimetric (ITC) analyses were used to determine the dissociation constant (Kd), the Gibbs free energy of binding (ΔG°), the enthalpy of binding (ΔH°), and the entropy of binding (ΔS°). […] (Table 1, Fig. 2, Supplementary Fig. 1).
The following purified reader domains: TAF3PHD (R857-K924), KDM5APHD3 (JARID1A, M1489-V1641), BPTFPHD (L2583-N2751), KDM4ATTD (JMJD2A, Q897-P1011) and SGF29TTD (R115-K293) were prepared as reported[10],[22]–[26]. The histone lysine demethylase were produced and purified to high purity via reported procedures KDM3A (JMJD1A, T515-S1317)[41], KDM4AJmjC[39] (JMJD2A, M1-L359), KDM4EJmjC (JMJD2E, M1–Q337)[34] and KDM7B[40] (PHF8, M37-N483 [NP_001171]). KDM5DJmjC was produced using an N-terminal hexa-His tagged KDM4D (KDM4DM1-L358) DNA construct, transformed into BL21(DE3) competent cells for recombinant protein production. Colonies were used to inoculate of LB media (50 mL) containing kanamycin (50 µg·mL^−1) and chloramphenicol (34 µg·mL^−1), which was placed in a 37 °C shaker overnight. The starter culture (10 mL) was used to inoculate TB media (6 × 1 L) containing kanamycin (50 µg·mL^−1) in 2 L baffled shaker flasks. After reaching an of OD600 of ~0.8, the temperature was reduced to 18 °C; at OD600 ~0.9 the cells were induced by the IPTG (0.5 mM) addition. After shaking overnight, the culture was centrifuged (5000 rpm, 10 mins), the media was decanted, and the cell pellet was suspended in Lysis Buffer [HEPES (50 mM), NaCl (500 mM), imidazole (20 mM), glycerol (5%) and TCEP (0.5 mM) in water (pH 7.4)]. The suspension was lysed by passaging through a high-pressure cell breaker (Avestin – EmulsiFlex-C5) for three rounds. The lysate was cleared by centrifugation (60 minutes, 36,000 × g, 4 °C), then loaded onto a Ni NTA gravity column. After extensive rinsing of the Ni-NTA gravity column with lysis buffer, the His-tagged protein was eluted in lysis buffer containing 300 mM imidazole. The eluted protein was concentrated and subjected to gel filtration chromatography using an AKTA Xpress system, an S200 16/600 gel filtration column, and GF buffer [HEPES (50 mM), NaCl (150 mM), glycerol (5%) and TCEP (0.5 mM) in water (pH 7.4)]. The protein identity was verified by LC-MS (ESI-TOF) observing a mass of 43759.7 Da, in accord with the predicted mass of 43751.6 Da.
ITC studies followed a reported procedure. The buffer used corresponded to that used in the final protein purification step. Briefly, TAF3PHD and KDM4ATTD: [Tris (50 mM) in water (pH 7.5)]; KDM5APHD3 and BTPFPHD: [Tris (50 mM), NaCl (20 mM) in water (pH 7.5)]; [Tris (25 mM), NaCl (50 mM), 1,4-dithiothreitol (1.0 mM) in water (pH 7.5)]. Experiments were conducted using ITC200 automated (GE Healthcare Life Sciences, USA) instrument at 25 °C. Histone peptide titrations were performed with the same reader batches. Solutions of the reader in buffer (25–40 µM) and of the histone H3 peptide (350–600 µM) in buffer were prepared. The prepared solutions were plated into a 96-well plate and inserted into the instrument for analysis. Experiments were performed according to manufacturer’s default settings: Plate pre-rinse syringe clean. A total of 19 injections were performed; each experiment was repeated 3–5 times. Heats of dilution for histone peptides determined in control experiments were subtracted from the titration binding data. […]

[3] = 25 °C, H3 1-10 peptide, Tris (50 mM), NaCl (20 mM), pH 7.5, from 3 to 5 experiments, ± SD
[4] = 25 °C, H3 1-10 peptide, Tris (50 mM), pH 7.5, from 3 to 5 experiments, ± SD

| Compound | volume difference Δ[^+Pme4-^+Nme4] ([1]; H3KP9me3 compared to H3K9me3) [Å^3] | -TΔS° (BPTFPHD (L2583–N2751); [3]) [kcal/mol] | ΔG° (BPTFPHD (L2583–N2751); [3]) [kcal/mol] | ΔH° (BPTFPHD (L2583–N2751); [3]) [kcal/mol] | fold stronger binding (ΔKd), H3KP4me3 versus H3K4me3 (BPTFPHD (L2583–N2751); BPTFPHD) | bond length (C-P or C-N) ([1]; C-P bond in H3KP4me3, C-N bond in H3K4me3) [Å] | -TΔS° [2, 4] [kcal/mol] | ΔG° [2, 4] [kcal/mol] | ΔH° [2, 4] [kcal/mol] | fold stronger binding (ΔKd), H3KP4me3 versus H3K4me3 ([2]; KDM4ATTD) | ΔΔH°, H3KP4me3 relative to H3K4me3 ([2]; KDM4ATTD) [kcal/mol] |
| --- | --- | --- | --- | --- | --- | --- | --- | --- | --- | --- | --- |
| ARTKQTAR(KPme3)STGGKA [H3KP9me3, histone H3 residues 1–15 with trimethylphosphonium lysine analogue at position 9] | 10 |  |  |  |  |  |  |  |  |  |  |
| C[C@H](N)C(=O)N[C@@H](CCCNC(=N)N)C(=O)N[C@H](C(=O)N[C@@H](CCCC[P+](C)(C)C)C(=O)N[C@@H](CCC(N)=O)C(=O)N[C@H](C(=O)N[C@@H](C)C(=O)N[C@@H](CCCNC(=N)N)C(=O)N[C@@H](CCCCN)C(=O)N[C@@H](CO)C(N)=O)[C@@H](C)O)[C@@H](C)O [H3KP4me3] |  | 4.7 ± 0.1 | -9.1 ± 0.1 | -13.8 ± 0.1 | ~ 7 fold | 1.87 | 8.8 ± 0.1 | -8.9 ± 0.1 | -17.7 ± 0.1 | ~ 12 fold | -4.7 |
